Assay [1] relates to incident CPDs (iCPDs) in NBHF cells. Nature of the assay: iCPD assessment by DNA ELISA after ssUV, NBHF. It is filed as cell-based, human. To be noted: 50 µg/mL, 24 h preincubation, 18 kJ/m^2 ssUV, Figure 3B. The source says: (§1) For UV exposures, we used a “SOL-UV6 ultraviolet solar simulator” from Newport irradiators. It is equipped with a Xenon arc lamp where the output is varied using the integrated variable attenuator aperture, which provides the ability to vary the output from 10% to 100% of the maximum available solar constants. The output spectrum is flat from 320 nm to 400 nm and no values are below 300 nm. This is abbreviated as “ssUV” for “solar-simulated UV” throughout the text. Various cell types seeded at ~50% confluency, were treated with the AZ and analogs at concentrations mentioned in the data figures for 24–h. Cells at ~80–90% confluency (untreated controls), were washed twice with PBS and exposed to 18 kJ/m^2 of ssUV in minimal amount of PBS (ex. 2 mL PBS in a 60 mm cell culture dish) without any dish lid in place. […] The ssUV apparatus was monitored almost daily using UV meters for any emissions below 300 nm. The dose was decided based upon the 80–90% cell survival post UV exposure. After exposure, one time point was collected immediately to assess iCPDs, whereas more dishes were incubated in cell culture medium, inside the cell culture incubator, for various time points to be collected post UV to assess dCPDs. For dCPD induction, it is important that the cell culture incubator is not opened for at least 30 min (the first time point post UV) to avoid possible interference from the CO2/O2 ratio, which will be altered upon opening the incubator doors. Cells were collected by scraping and washed once with PBS, which was followed by DNA isolation using a Quick DNA miniprep Kit (Cat. D3024, Zymo Research, Irvine, CA, USA). CPDs were assessed using our previously established DNA ELISA protocols. In brief, ELISA was performed using mouse monoclonal Anti-CPD (Cat. CAC-NM-DND-001, Clone TDM-2, CosmoBio, Inc., Carlsbad, CA, USA). Flat-bottom, 96-well plates (Cat. 2801, Thermo Scientific, Waltham, MA, USA) were coated overnight with 50 µL of protamine sulphate (0.005–0.05%, Cat. P3369, Sigma, St. Lois, MO, USA) in distilled water. After washing twice with water, heat-denatured DNA was plated in triplicates from each sample, into the protamine sulphate coated plate wells (50–100 ng/well in 50 µL PBS) and incubated overnight at 37 °C. The plates were washed 5 times with 200 µL of PBST (PBS containing 0.05% Tween-20 Cat. P7949, Sigma), and blocked with 2–4% FBS in PBST (blocking buffer) for 1 h at room temperature (RT). The plates were incubated with 100 µL of a 1:1000 dilution of anti-CPD antibody in blocking buffer, and incubated for 30 min at 37 °C, which was followed by 5 washes in PBST. Next, the plates were incubated with 100 µL of a 1:2000 dilution of Biotin-F(ab’)2 fragment of anti-mouse IgG(H+L) (Cat. B-2763, Life Technologies) in blocking buffer for 30 min at 37 °C. Detection was conducted using 100 µL of a 1:10,000 dilution of Streptavidin HRP (Cat. 434323, Life Technologies) in 2% FBS for 30 min at 37 °C, which was followed by 5 washes. The plates were washed once with citrate phosphate buffer (24.3 mM citric acid monohydrate, J.T. Baker Cat. 0110-01- and 51.4-mM sodium phosphate dibasic, Sigma Cat. S7907, pH 5.0). The o-phenylene diamine dihydrochloride (Cat. P8287-50TAB, Sigma) was used as a HRP substrate at 400 µg/mL in citrate phosphate buffer for 5–10 min. A measure of 50 µL of 2M H2SO4 was used to stop the reaction as soon as the color developed (5–10 min incubation in substrate), and OD was measured at 490 nm using a Synergy-2 multimode microplate reader (BioTek, Winooski, VT, USA).

Assay [2] deals with incident CPDs (iCPDs) in pigmented C57BL/6 melanocytes (Mel-a). Nature of the assay: iCPD assessment by DNA ELISA after ssUV, Mel-a. The class given is cell-based, mouse. The note with it: various doses up to 1 mg/mL, 24 h, Figure 4A.
Source text: as §1

For assay [3], the system named is incident CPDs (iCPDs) in albino C57BL/6 melanocytes (Mel-c). Put plainly: iCPD assessment by DNA ELISA after ssUV, Mel-c. The class given is cell-based, mouse. The note with it: various doses up to 1 mg/mL, 24 h, Figure 4B. The source says: (§2) For UV exposures, we used a “SOL-UV6 ultraviolet solar simulator” from Newport irradiators. It is equipped with a Xenon arc lamp where the output is varied using the integrated variable attenuator aperture, which provides the ability to vary the output from 10% to 100% of the maximum available solar constants. The output spectrum is flat from 320 nm to 400 nm and no values are below 300 nm. This is abbreviated as “ssUV” for “solar-simulated UV” throughout the text. Various cell types seeded at ~50% confluency, were treated with the AZ and analogs at concentrations mentioned in the data figures for 24–h. Cells at ~80–90% confluency (untreated controls), were washed twice with PBS and exposed to 18 kJ/m^2 of ssUV in minimal amount of PBS (ex. 2 mL PBS in a 60 mm cell culture dish) without any dish lid in place. […] The ssUV apparatus was monitored almost daily using UV meters for any emissions below 300 nm. The dose was decided based upon the 80–90% cell survival post UV exposure. After exposure, one time point was collected immediately to assess iCPDs, whereas more dishes were incubated in cell culture medium, inside the cell culture incubator, for various time points to be collected post UV to assess dCPDs. For dCPD induction, it is important that the cell culture incubator is not opened for at least 30 min (the first time point post UV) to avoid possible interference from the CO2/O2 ratio, which will be altered upon opening the incubator doors. Cells were collected by scraping and washed once with PBS, which was followed by DNA isolation using a Quick DNA miniprep Kit (Cat. D3024, Zymo Research, Irvine, CA, USA). CPDs were assessed using our previously established DNA ELISA protocols. In brief, ELISA was performed using mouse monoclonal Anti-CPD (Cat. CAC-NM-DND-001, Clone TDM-2, CosmoBio, Inc., Carlsbad, CA, USA). […] A measure of 50 µL of 2M H2SO4 was used to stop the reaction as soon as the color developed (5–10 min incubation in substrate), and OD was measured at 490 nm using a Synergy-2 multimode microplate reader (BioTek, Winooski, VT, USA).

Assay [4] relates to incident CPDs (iCPDs) in HaCaT cells. Put plainly: iCPD assessment by DNA ELISA after ssUV, HaCaT. The note with it: various doses, Supplementary Figure S2A. It is filed as cell-based, human.
Source text: as §2

Consider `COc1ccc(CC(C(C)=O)C(C)=O)cc1OC` [DMBPD, 3-(3,4-Dimethoxy-benzyl)-pentane-2,4-dione], for which the “Inhibition of iCPD formation” value in assay [1] was “inhibited iCPD formation to varying extents”.

As to `COc1ccc(CCC(C)=O)cc1` [RKME, 4-(4-Methoxyphenyl)-butan-2-one, reference compound], the figures for the “iCPD inhibition across doses” value in assay [2], in assay [2] (listed as RMKE) and in assay [3] were “did not show any impact”, “completely abrogated the ability of the molecule to prevent CPD formation” and “did not show any impact”, respectively. In addition, in assay [4], the “iCPD inhibition” value was “did not show any effect”.

As to `COc1cc(CC(C(C)=O)C(C)=O)cc(OC)c1OC` [TMBPD, 3-(3,4,5-trimethoxy-benzyl)-pentane-2,4-dione], the “Inhibition of iCPD formation” value in assay [1] is given as “inhibited iCPD formation to varying extents”.

The values are drawn from publication PMC9952391, “The Role of Acetyl Zingerone and Its Derivatives in Inhibiting UV-Induced, Incident, and Delayed Cyclobutane Pyrimidine Dimers” (Antioxidants, 2023).
